In patent US20060204502A1 (priority 2004, published 2006):
Like-named read-outs stand apart in the source and are kept apart here. Each block holds one molecule with its values, some of them ahead of it.

Assays:
[1] = tested on: A375 cells; assay: Colony formation assay of A375 cells; format: cell-based, human
Method: FIG. 2 illustrates colony formation assay of A375 cells. Cells were treated with different drugs and colonies were counted after 7 days. The values represent the mean±SEM of four independent experiments. […] Analysis was by ANOVA followed by Dunnett's test.
Control plates received the same volume of DMSO alone. After 7 days of growth at 37° C. in humidified atmosphere containing 5% CO2, the cells were fixed with absolute methanol for 5′ and stained with 1/10 Giemsa/phosphate-buffered saline (PBS) staining solution for 10 minutes. Staining solution was removed and colonies of greater than 30 cells were scored as survivors. For each treatment, six individual wells were scored.

[2] = tested on: HIF-1α; assay: HIF-1α protein immunoblot in hypoxic cells; format: cell-based, human; settings: for HIF-1α protein expression: 100 nM, 4 hours hypoxia
Method: Cell culture and hypoxia treatment: Cells were maintained in DMEM (A375), EMEM (NCTC 2544) or RPMI 1640 (U87MG, U2OS) medium containing 10% fetal calf serum, penicillin (100 U/ml), streptomycin (100 ug/ml), and L-glutamine (2 mM) at 37° C. in 5% CO2/95% air. Cells were passaged two or three times weekly at a ratio between 1:5 and 1:10. Hypoxic exposure was in BBL™ GasPak pouch™ System (Becton Dickinson) that reduce oxygen concentration of less than 2% within 2 hours of incubation at 35° C.
Cells were harvested and washed with ice-cold PBS containing 1 mM sodium orthovanadate, AEBSF 104 mM, aprotinin 0.08 mM, leupeptin 2 mM, bestatin 4 mM, pepstatin A 1.5 mM, E-64 1.4 mM. Cells were then lysed in Triton lysis buffer. The protein concentration was determined using BCA protein assay kit (Pierce). […] The gel was then electroblotted onto a nitrocellulose membrane. Membranes were blocked with 5% nonfat dry milk in PBS containing 0.1% Tween-20 and incubated with antibodies against HIF-1α (1:250 dilution) and HIF-1β (1:1000 dilution) in 5% nonfat dry milk in PBS/0.1% Tween-20 overnight at 4° C. Aliquots of total protein sample (50 ug) were analyzed using antibodies specific for phosphorylated (Thr183/Tyr185) or total p44/p42 MAPK (1:5000 dilution), phosphorylated (Thr180/Tyr182) or total p38 MAPK (1:1000 dilution) and for A3 receptor (1 µg/ml dilution). Filters were washed and incubated for 1 hour at room temperature with peroxidase-conjugated secondary antibodies against mouse and rabbit IgG (1:2000 dilution). […] The membranes were then stripped and reprobed with tubulin (1:250) to ensure equal protein loading.
U0126 was used at 10 and 30 uM as inhibitor of MEK-1 and MEK-2 to prevent p44 and p42 MAPK activation. SB202190 was used at 1 and 10 uM as inhibitor of p38 MAPK.
Densitometry analysis: The intensity of each band in immunoblot assay was quantified using molecular analyst/PC densitometry software (Bio-Rad). […] The data were presented as the mean±S.E., and analyzed by the Student's test.

[3] = tested on: HIF-1α mRNA; assay: Real-Time RT-PCR of HIF-1α mRNA, A375 cells in hypoxia; format: cell-based, human; settings: 4 hours hypoxia
[4] = tested on: p44/p42 MAPK; assay: p44/p42 MAPK phosphorylation immunoblot, A375 cells in hypoxia; format: cell-based, human; settings: 4 hours hypoxia, nanomolar concentrations, maximum at 100 nM
Method: (§1) Cells were harvested and washed with ice-cold PBS containing 1 mM sodium orthovanadate, AEBSF 104 mM, aprotinin 0.08 mM, leupeptin 2 mM, bestatin 4 mM, pepstatin A 1.5 mM, E-64 1.4 mM. Cells were then lysed in Triton lysis buffer. The protein concentration was determined using BCA protein assay kit (Pierce). Equivalent amounts of protein (35 ug) were subjected to electrophoresis on 7.5% sodium dodecyl sulfate-acrylamide gel. The gel was then electroblotted onto a nitrocellulose membrane. Membranes were blocked with 5% nonfat dry milk in PBS containing 0.1% Tween-20 and incubated with antibodies against HIF-1α (1:250 dilution) and HIF-1β (1:1000 dilution) in 5% nonfat dry milk in PBS/0.1% Tween-20 overnight at 4° C. Aliquots of total protein sample (50 ug) were analyzed using antibodies specific for phosphorylated (Thr183/Tyr185) or total p44/p42 MAPK (1:5000 dilution), phosphorylated (Thr180/Tyr182) or total p38 MAPK (1:1000 dilution) and for A3 receptor (1 µg/ml dilution). Filters were washed and incubated for 1 hour at room temperature with peroxidase-conjugated secondary antibodies against mouse and rabbit IgG (1:2000 dilution). […] The membranes were then stripped and reprobed with tubulin (1:250) to ensure equal protein loading. […]

[5] = tested on: p38 MAPK; assay: p38 MAPK phosphorylation immunoblot, A375 cells in hypoxia; format: cell-based, human; settings: 4 hours hypoxia, 10-1000 nM
Method: as §1

[6] = tested on: A375 cells; assay: Flow cytometry cell cycle (G2/M) and apoptosis (sub-G1) analysis, A375; format: cell-based, human; settings: A375; for EC50: Homo sapiens, A-375
Method: Flow Cytometry Analysis: A375 and NCTC2544 adherent cells were trypsinized, mixed with floating cells, washed with PBS and permeabilised in 70% (vol/vol) ethanol/PBS solution at 4° C. for at least 24 hours. Jurkat, HeL023 and PBMC cells were centrifuged for 10 minutes at 1000×g. The cell pellet was then resuspended and permeabllised in 70% (vol/vol) ethanol/PBS solution at 4° C. for at least 24 hours. The cells were washed with PBS and the DNA was stained with a PBS solution, containing 20 μg/ml of propidium iodide and 100 μg/ml of RNAse, at room temperature for 30 minutes. Cells were analysed by FACScan (Becton-Dickinson) and the content of DNA was evaluated by the Cell-LISYS program (Becton-Dickinson). Cell distribution among cell cycle phases and apoptotic cells was evaluated as previously described (Secchiero et al., 2001). Briefly, the cell cycle distribution is shown as the percentage of cells containing 2n (G1 phase), 4n (G2 and M phases), 4n>x>2n. DNA amount (S phase) judged by propidium iodide staining. The apoptotic population is the percentage of cells with DNA content lower than 2n.
After 24 hours, cells were collected for flow cytometry analysis. PD 98059 was used at 20 uM as an inhibitor of MEK to prevent MEK-1 activation. […]
EC50 values were obtained by analysing G2/M accumulation dose response curve. ECMAX values were obtained by analysing sub-G1 accumulation dose response curve. Paclitaxel values have units of ng/ml.

[7] = target: T1, human A3 adenosine receptor (Homo sapiens, UniProt P0DMS8); assay: Binding affinity to A3 adenosine receptor in A375 cells
T1 construct: endogenous in cells; host or cells: A375 human melanoma cells (ATCC)
T1 sequence (P0DMS8 1-318): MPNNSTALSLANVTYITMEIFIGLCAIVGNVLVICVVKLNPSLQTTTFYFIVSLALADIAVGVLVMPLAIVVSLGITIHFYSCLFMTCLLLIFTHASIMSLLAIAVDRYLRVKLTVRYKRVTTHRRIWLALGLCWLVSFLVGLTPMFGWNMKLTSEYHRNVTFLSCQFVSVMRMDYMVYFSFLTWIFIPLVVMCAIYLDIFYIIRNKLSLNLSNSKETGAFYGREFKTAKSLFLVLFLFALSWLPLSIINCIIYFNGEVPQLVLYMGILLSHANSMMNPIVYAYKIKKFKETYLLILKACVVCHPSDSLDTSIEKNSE

[8] = target: P-gp (Homo sapiens, UniProt P08183); format: cell-based; settings: HeL023 cells; 10 μM
Sequence of P-gp (P08183 whole entry): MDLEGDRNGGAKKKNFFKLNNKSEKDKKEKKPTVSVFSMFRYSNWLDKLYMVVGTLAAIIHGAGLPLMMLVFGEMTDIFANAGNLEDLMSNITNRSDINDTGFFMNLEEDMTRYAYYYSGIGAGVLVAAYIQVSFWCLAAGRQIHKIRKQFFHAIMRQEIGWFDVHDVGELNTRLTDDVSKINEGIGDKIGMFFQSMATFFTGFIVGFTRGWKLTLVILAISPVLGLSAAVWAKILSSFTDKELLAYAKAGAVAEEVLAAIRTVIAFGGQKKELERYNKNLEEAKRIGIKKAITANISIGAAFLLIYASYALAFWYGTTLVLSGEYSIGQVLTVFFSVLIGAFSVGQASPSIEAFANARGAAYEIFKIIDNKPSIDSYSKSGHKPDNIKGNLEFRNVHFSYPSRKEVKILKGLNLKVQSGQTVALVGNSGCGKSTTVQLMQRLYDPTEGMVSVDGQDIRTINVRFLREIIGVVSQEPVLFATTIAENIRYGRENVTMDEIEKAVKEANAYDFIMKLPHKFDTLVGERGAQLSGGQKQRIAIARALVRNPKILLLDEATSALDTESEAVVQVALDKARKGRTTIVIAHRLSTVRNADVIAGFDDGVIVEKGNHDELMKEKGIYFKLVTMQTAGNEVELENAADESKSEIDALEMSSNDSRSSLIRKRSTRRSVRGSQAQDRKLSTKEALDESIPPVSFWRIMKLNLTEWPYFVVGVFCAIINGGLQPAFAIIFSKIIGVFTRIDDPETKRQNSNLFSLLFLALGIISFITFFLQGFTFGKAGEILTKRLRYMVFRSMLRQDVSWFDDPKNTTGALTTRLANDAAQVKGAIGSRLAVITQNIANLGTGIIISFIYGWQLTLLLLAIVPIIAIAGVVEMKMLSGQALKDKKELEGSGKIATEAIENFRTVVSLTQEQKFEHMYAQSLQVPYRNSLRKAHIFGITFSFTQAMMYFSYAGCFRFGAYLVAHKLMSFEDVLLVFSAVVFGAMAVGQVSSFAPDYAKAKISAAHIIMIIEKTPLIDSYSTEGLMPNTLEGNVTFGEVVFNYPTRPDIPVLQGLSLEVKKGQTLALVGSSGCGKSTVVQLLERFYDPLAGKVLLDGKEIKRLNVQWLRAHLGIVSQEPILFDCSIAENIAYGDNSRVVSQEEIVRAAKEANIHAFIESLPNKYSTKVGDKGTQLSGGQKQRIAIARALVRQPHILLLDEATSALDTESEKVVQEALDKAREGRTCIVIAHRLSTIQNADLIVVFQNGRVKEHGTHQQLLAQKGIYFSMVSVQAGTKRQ
Method: Rhodamine 123 Efflux Assay: 5×10^5 cells from each subline were loaded with 50 ng/ml of rhodamine 123 for 30 minutes at 37 C in medium. The cells were washed and resuspended in dye-staining agent free medium for 3 hours at 37 C. to allow rhodamine 123 efflux. The cells were then washed twice and the fluorescence of intracellular rhodamine 123 were analysed with Flow cytometer (residual fluorescence FRES). The fluorescence was compared with loaded cells maintained at 4 C. to prevent drug export (maximal fluorescence FMAX). […] Cells from each subline that were not being exposed to rhodamine 123 were used as negative controls.
Rhodamine 123 (Rh123) retention, a P-gp functional assay, was studied in all cell lines. This assay was performed by incubating cells with Rh123 and determining Rh123 accumulation by measuring its fluorescence. The maximum load of Rh123 (FMAX) was quantified at the end of treatment harvesting the cells and storing them at 4° C. to prevent any active Rh123 efflux. The P-gp drug efflux was allowed incubating Rh123-loaded cells in fresh new medium Rh123-free for 3 hours at 37° C. After this incubation, residual fluorescence (FRES) was measured and compared to FMAX.

[9] = tested on: PBMC blasts; assay: Flow cytometry cell cycle analysis, PBMC blasts; format: cell-based; settings: Homo sapiens, + MRE3008F20 10 μM, read-out: EC50 (G2/M accumulation)
[10] = tested on: Human Melanoma A375; assay: MTT growth inhibitory assay, A375; settings: Homo sapiens, A-375, read-out: IC50 (μg/ml) of anti-neoplastic agent used jointly with A3 antagonist, A375 cells

EC50 ([2]; A375, hypoxia 4 hours, read-out: EC50, HIF-1α protein accumulation): 10.6 ± 1.2 nM
Structure (SMILES): CNC(=O)[C@H]1O[C@@H](n2cnc3c(NCc4cccc(I)c4)nc(Cl)nc32)[C@H](O)[C@@H]1O [Cl-IB-MECA]
colony formation, % of DMSO control ([1]; 10 μM alone, colonies counted after 7 days): 130% | colony formation, % of DMSO control ([1]; 10 μM combined with paclitaxel (0.75 μg/ml), 7 days): 85% | HIF-1α protein expression ([2]; U2OS osteosarcoma): significant increase | HIF-1α protein expression ([2]; U87MG glioblastoma): significant increase | HIF-1α protein expression ([2]; human keratinocytes NCTC 2544): significant increase | fold increase of HIF-1α mRNA accumulation vs untreated cells ([3]; 10 nM): 1.13±0.10 fold | fold increase of HIF-1α mRNA accumulation vs untreated cells ([3]; 100 nM): 1.25±0.15 fold | fold increase of HIF-1α mRNA accumulation vs untreated cells ([3]; 1 μM): 1.19±0.13 fold | phosphorylation of p44 and p42 [4]: induced | phosphorylation of p38 MAPK [5]: increased the phosphorylation of p38 MAPK in a dose-dependent manner

EC50 ([6]; antagonist dose inducing 50% of the enhancing activity to vindesine (1 nM), G2/M accumulation, read-out: SEC50): 430 ± 40 nM | Ki [7]: 2.3 ± 0.2 nM | % of Rh123 Negative Cells (cells expressing P-gp activity) [8]: 1.0 ± 0.2%
Structure (SMILES): CCCCn1cc2c(nc(NC(=O)Nc3ccccc3)n3nc(-c4ccco4)nc23)n1 [MRE 3062F20, 5-N-(4-phenyl-carbumoyl)amino-8-butyl-2(2furyl)-pyrazolo-[4,3e]-1,2,4-triazolo[1,5-c]pyrimidine]

EC50 ([6]; 24 h, DMSO (no antagonist), read-out: EC50 (G2/M accumulation)): 16.6 ± 2 ng/mL | IC50 ([10]; + IL-11 (5 μg/ml)): 0.00046 µg/mL | IC50 ([10]; + MRE3008F20 (10 μg/ml)): 0.00059 µg/mL
Structure (SMILES): CC(=O)O[C@H]1C(=O)[C@@]2(C)[C@H]([C@H](OC(=O)c3ccccc3)[C@]3(O)C[C@H](OC(=O)[C@H](O)[C@@H](NC(=O)c4ccccc4)c4ccccc4)C(C)=C1C3(C)C)[C@]1(OC(C)=O)CO[C@@H]1C[C@@H]2O [paclitaxel]
colony formation, % of DMSO control ([1]; paclitaxel (0.75 μg/ml) alone, 7 days): 64% | ECMAX (concentration exerting maximal apoptosis, sub-G1) ([6]; DMSO (no antagonist)): 6.00 ± 0.63 ng/mL | EC50 [9]: 5.3 ± 0.6 ng/mL
